Assay results from publication PMC6983991, “Toxicity and Anti-promastigote Activity of Benzoxazinoid Analogs Against Leishmania (Viannia) braziliensis and Leishmania (Leishmania) infantum” (Advanced Pharmaceutical Bulletin, 2019).
Converted amounts (≈) assume the structure as drawn. Like-named read-outs stand apart in the source and are kept apart here.

Columns and labels:
[1] = test system: Leishmania (L.) infantum (MHOM/BR/74/PP75) promastigotes; assay: Anti-promastigote activity, MTT colorimetric assay; format: cell-based
Experimental: (§1) Promastigotes of Leishmania (V.) braziliensis (MHOM/BR/75/M2903) and Leishmania (L.) infantum (MHOM/BR/74/PP75) were grown in a biphasic medium. The solid phase was composed of Nicolle–Novy–MacNeals (NNN) medium with 15% defibrillated rabbit blood. Already in the liquid phase, we employed Roswell Park Memorial Institute (RPMI)-1640 (Sigma-Aldrich, St. Louis, USA) or Liver Infusion Tryptose (LIT) medium with 15% fetal bovine serum (Gibco – Thermo Fisher Scientific, Waltham USA), both supplemented with 1% of penicillin-streptomycin antibiotic solutions (10.000 U/mL of penicillin and 10.000 μg/mL of streptomycin; Gibco – Thermo Fisher Scientific, Waltham, USA). Cultures were maintained in an incubator at 25°C until parasites reached logarithmic phase (4 days). Next, the cultures were centrifuged and the pellet was suspended in RPMI-1640 or LIT for counting promastigotes using a Neubauer hemocytometer under an optical microscope (Axiostar Plus Carl Zeiss, Jena, Germany) at 400x magnification. Subsequently, parasites were diluted in RPMI-1640 or LIT medium at a final concentration of 1 x 10^6parasites/mL for use in antileishmanial assays.
(§2) The 50% inhibitory concentration (IC50) against L. (V.) braziliensis and L. (L.) infantum was evaluated by determination of the parasite viability using the colorimetric 3-(4,5-dimethylthiazol-2-yl)-2,5-diphenyltetrazolium bromide (MTT) method.[19] Initially, 100 μL of the promastigote suspension prepared in RPMI-1640 or LIT medium (1 × 10^6cells/mL) was added in each well of the 96-well microplate. Parasites were then treated with two-fold serial dilutions (from 3.12 to 400 µg/mL) of Bex-derived analogs prepared in 10% dimethyl sulfoxide (DMSO) (Sigma-Aldrich, St. Louis, USA) and the microplates were incubated at 25°C for 48 h. Next, 20 μL of MTT solution at 5 mg/mL (Sigma-Aldrich, St. Louis, USA) was added to the parasite cultures and the plates were covered with laminated paper and incubated at 37°C for 4 h. Finally, the plates were centrifuged at 1500 rpm for 15 min at 4°C (Heraeus-Megafuge 11R Centrifuge - Thermo Fisher Scientific, Waltham USA) and the formazan crystals formed were dissolved by the addition of 200 μL 10% DMSO. After further incubation for 5 min at room temperature, absorbance at 570 nm of samples measured using a microplate reader (Metller Toledo, Brazil). Meglumine antimoniate (Glucantime®Sanofi-aventis, France) and amphotericin B (Eurofarma, Brazil) were included as positive controls, and 10% DMSO solution was used as a solvent control. Samples containing RPM1-1640 or LIT only were used to control the sterility of media and samples containing inoculum and medium, but not compounds, were employed as growth controls.

[2] = test system: Leishmania (V.) braziliensis (MHOM/BR/75/M2903) promastigotes; assay: Anti-promastigote activity, MTT colorimetric assay; format: cell-based
Experimental: as §1, §2

[3] = Cytotoxicity, MTT assay; format: cell-based; conditions: hamster spleen cells, 48 h exposure
Experimental: (§3) Hamster spleen cells were used to test cytotoxicity. The cells were kindly provided by Dr. Rosy Iara Maciel de Azambuja Ribeiro from of Laboratory of Experimental Pathology/UFSJ. The cells were cultivated in saline solution (NaCl 0.9%; Synth, Brazil) and maintained at 37°C in an incubator with an atmosphere containing 5% CO2 (Thermo Fisher Scientific, Waltham, USA).
(§4) Cytotoxic concentration determinations for 50% of the cells in culture (CC50) were evaluated by using the colorimetric 3-(4,5-dimethylthiazol-2-yl)-2,5-diphenyltetrazolium bromide (MTT) method, following protocols outlined in a previous study.[19] Briefly, spleen cells were exposed for 48h to several concentrations of compounds (3, 6.25, 12.5, 25, 50, 100, 200, 400 and 800 µg/mL) and, afterward, the MTT assay was used to quantify the cell viability as was done using the anti-promastigote assay. Finally, CC50 values were calculated by linear regression analysis of absorbance values obtained previously.[20]
(§5) The selectivity of Bex analogs and antileishmanial agents was determined to evaluate the safety of compounds. Thus, the selectivity index (SI) was calculated through the ratio between the CC50 of compounds against the hamster spleen cells and the geometric mean (GM) of IC50 values calculated for L. (V.) braziliensis and L. (L.) infantum.[21] In the case where CC50 was higher than the highest concentration tested of the compound, to calculate the SI, the value used was 400. The larger SI was indicative of a safer molecule.

[4] = test system: Escherichia coli; set-up: method as in PMID 16042337; conditions: microdilution broth assays; cited from earlier work
[5] = test system: Staphylococcus aureus; set-up: method as in PMID 16042337; conditions: microdilution broth assays; cited from earlier work
[6] = test system: Streptococcus mutans; set-up: method as in PMID 16042337; conditions: microdilution broth assays; cited from earlier work
[7] = test system: Bacillus subtilis; set-up: method as in PMID 26166773; conditions: disc diffusion, 2 mg/disk; cited from earlier work
[8] = test system: Klebsiella pneumoniae; set-up: method as in PMID 26166773; conditions: disc diffusion, 2 mg/disk; cited from earlier work
[9] = test system: Enterococcus faecalis; set-up: method as in PMID 26166773; conditions: disc diffusion, 2 mg/disk; cited from earlier work
[10] = test system: E. coli extended-spectrum β-lactamases produced; set-up: method as in PMID 26166773; conditions: disc diffusion, 2 mg/disk; cited from earlier work
[11] = test system: S. aureus methicillin-resistant; set-up: method as in PMID 26166773; conditions: disc diffusion, 2 mg/disk; cited from earlier work
[12] = test system: Pseudomonas aeruginosa; set-up: method as in PMID 26166773; conditions: disc diffusion, 2 mg/disk; cited from earlier work
[13] = test system: rat mast cells stimulated with concanavalin A and sensitized with immunoglobulin E; set-up: method as in PMID 2453615; conditions: cited from earlier work
[14] = test system: reverse transcriptase from human immunodeficiency virus(HIV); conditions: cited from earlier work
[15] = test system: Hamster spleen cells; assay: Cytotoxicity, MTT assay; format: cell-based; conditions: 48 h exposure
Experimental: as §3, §4, §5

[16] = geometric mean of IC50 in LIT and RPMI-1640, read-out: GM (geometric mean of IC50 values) L. infantum
[17] = promastigotes, LIT medium, 48 h, 25°C, MTT, read-out: IC50 L. infantum LIT
[18] = promastigotes, RPMI-1640 medium, 48 h, 25°C, MTT, read-out: IC50 L. infantum RPMI-1640
[19] = geometric mean of IC50 in LIT and RPMI-1640, read-out: GM (geometric mean of IC50 values) L. braziliensis
[20] = promastigotes, LIT medium, 48 h, 25°C, MTT, read-out: IC50 L. braziliensis LIT
[21] = promastigotes, RPMI-1640 medium, 48 h, 25°C, MTT, read-out: IC50 L. braziliensis RPMI-1640
[22] = geometric mean of IC50 in LIT and RPMI-1640
[23] = promastigotes, LIT medium, 48 h, 25°C, MTT
[24] = promastigotes, RPMI-1640 medium, 48 h, 25°C, MTT

Compound	IC50 [1, 16]	IC50 [1, 17]	IC50 [1, 18]	IC50 [2, 19]	IC50 [2, 20]	IC50 [2, 21]	CC50 at 48 h [3]	also measured
C[C@@H]1[C@H](O)[C@@H](C)/C=C/C=C/C=C/C=C/C=C/C=C/C=C/[C@H](O[C@@H]2O[C@H](C)[C@@H](O)[C@H](N)[C@@H]2O)C[C@@H]2O[C@](O)(C[C@@H](O)C[C@@H](O)[C@H](O)CC[C@@H](O)C[C@@H](O)CC(=O)O[C@H]1C)C[C@H](O)[C@H]2C(=O)O [ANFO, Amphotericin B, reference compound]	41.5 µg/mL (≈ 45 µM)	41.6 ± 4.27 µg/mL (≈ 45.1 µM)	41.5 ± 0.99 µg/mL (≈ 44.9 µM)	33.4 µg/mL (≈ 36.1 µM)	33.3 ± 3.66 µg/mL (≈ 36 µM)	33.4 ± 3.01 µg/mL (≈ 36.1 µM)	89.3 ± 2.24 µg/mL (≈ 96.7 µM)	–
O=c1[nH]c2ccccc2o1 [BOA, benzoxazolin-2-one]	–	–	–	–	–	–	–	Concentration exhibiting antibacterial effects [4]: 1,000 μg/mL; Concentration exhibiting antibacterial effects [5]: 500 µg/mL; Concentration exhibiting antibacterial effects [6]: 500 µg/mL
O=C1COc2ccccc2N1O [Bex1]	–	174 ± 3.39 µg/mL (≈ 1050 µM)	188 ± 3.58 µg/mL (≈ 1140 µM)	–	212 ± 6.04 µg/mL (≈ 1280 µM)	238 ± 6.57 µg/mL (≈ 1440 µM)	–	–
CC1Oc2ccccc2N(O)C1=O (centres unmarked) [Bex2]	108 µg/mL (≈ 605 µM)	106 ± 5.61 µg/mL (≈ 592 µM)	111 ± 5.69 µg/mL (≈ 620 µM)	106 µg/mL (≈ 591 µM)	103 ± 4.36 µg/mL (≈ 575 µM)	109 ± 4.44 µg/mL (≈ 608 µM)	274.3 ± 1.87 µg/mL (≈ 1530 µM)	–
CCC1Oc2ccccc2N(O)C1=O (centres unmarked) [Bex3]	91 µg/mL (≈ 471 µM)	89 ± 6.43 µg/mL (≈ 461 µM)	93 ± 6.48 µg/mL (≈ 481 µM)	94.5 µg/mL (≈ 489 µM)	92 ± 6.19 µg/mL (≈ 476 µM)	97 ± 6.24 µg/mL (≈ 502 µM)	106 ± 2.26 µg/mL (≈ 547 µM)	–
O=C1C(O)Oc2ccccc2N1O (centres unmarked) [DIBOA, 2,4-dihydroxy-1,4-benzoxazin-3-one]	–	–	–	–	–	–	–	Concentration exhibiting antibacterial effects [4]: 1,000 μg/mL; Concentration exhibiting antibacterial effects [5]: 500 µg/mL; Concentration exhibiting antibacterial effects [6]: 500 µg/mL
COc1ccc2c(c1)OC(O)C(=O)N2O (centres unmarked) [DIMBOA, 2,4-dihydroxy-7-methoxy-1,4-benzoxazin-3-one]	–	–	–	–	–	–	–	Antibacterial activity [7]: active; Antibacterial activity [8]: active; Antibacterial activity [9]: active; Antibacterial activity [10]: active; Antibacterial activity [11]: active; Antibacterial activity [12]: active
O=C1Nc2ccccc2OC1O (centres unmarked) [HBOA, 2-hydroxy-1,4-benzoxazin-3-one]	–	–	–	–	–	–	–	Effect on levels of histamine released from rat mast cells [13]: able to reduce levels of histamine; Concentration exhibiting antibacterial effects [4]: 1,000 μg/mL; Concentration exhibiting antibacterial effects [5]: 500 µg/mL; Concentration exhibiting antibacterial effects [6]: 500 µg/mL
COc1ccc2c(c1)OC(O)C(=O)N2 (centres unmarked) [HMBOA]	–	–	–	–	–	–	–	Effect on levels of histamine released from rat mast cells [13]: able to reduce levels of histamine
COc1ccc2[nH]c(=O)oc2c1 [MBOA, 6-methoxy-benzoxazolin-2-one]	–	–	–	–	–	–	–	Effect on levels of histamine released from rat mast cells [13]: able to reduce levels of histamine; Inhibition of HIV reverse transcriptase [14]: able to inhibit
O=C1COc2cccnc2N1O [Pyr1]	101 µg/mL (≈ 608 µM)	99 ± 5.61 µg/mL (≈ 596 µM)	103 ± 5.64 µg/mL (≈ 620 µM)	111 µg/mL (≈ 671 µM)	108 ± 5.91 µg/mL (≈ 650 µM)	115 ± 6.04 µg/mL (≈ 692 µM)	> 400 µg/mL	–
CC1Oc2cccnc2N(O)C1=O (centres unmarked) [Pyr2]	115 µg/mL (≈ 638 µM)	112 ± 5.34 µg/mL (≈ 622 µM)	118 ± 5.45 µg/mL (≈ 655 µM)	102 µg/mL (≈ 569 µM)	100 ± 5.18 µg/mL (≈ 555 µM)	105 ± 5.23 µg/mL (≈ 583 µM)	> 400 µg/mL	–
CCC1Oc2cccnc2N(O)C1=O (centres unmarked) [Pyr3]	–	149 ± 6.35 µg/mL (≈ 767 µM)	160 ± 6.62 µg/mL (≈ 824 µM)	–	141 ± 5.94 µg/mL (≈ 726 µM)	152 ± 6.17 µg/mL (≈ 783 µM)	–	–
CCCC1Oc2cccnc2N(O)C1=O (centres unmarked) [Pyr4]	93 µg/mL (≈ 447 µM)	91 ± 6 µg/mL (≈ 437 µM)	95 ± 6.05 µg/mL (≈ 456 µM)	100 µg/mL (≈ 483 µM)	98 ± 5.94 µg/mL (≈ 471 µM)	103 ± 5.99 µg/mL (≈ 495 µM)	202 ± 2.11 µg/mL (≈ 969 µM)	–
CCCCC1Oc2cccnc2N(O)C1=O (centres unmarked) [Pyr5]	–	135 ± 4.13 µg/mL (≈ 607 µM)	143 ± 4.25 µg/mL (≈ 643 µM)	–	142 ± 3.67 µg/mL (≈ 639 µM)	154 ± 3.85 µg/mL (≈ 693 µM)	–	–
Meglumine antimoniate [reference compound]	–	–	–	–	–	–	–	GM (geometric mean of IC50 values) L. infantum [1, 22]: 99.47 µg/mL; IC50 L. infantum LIT [1, 23]: 97 ± 3.14 µg/mL; IC50 L. infantum RPMI-1640 [1, 24]: 102 ± 3.54 µg/mL; GM (geometric mean of IC50 values) L. braziliensis [2, 22]: 97.5 µg/mL; IC50 L. braziliensis LIT [2, 23]: 97 ± 4.34 µg/mL; IC50 L. braziliensis RPMI-1640 [2, 24]: 98 ± 4.45 µg/mL; CC50 [15]: >400 µg/mL
